# Source: ChEMBL document CHEMBL4507260 (2021)
# Legend:
# Details in all cases: Compound concentration 1000.0 nM
# [1] = target: Activin receptor type-2A (Homo sapiens) (UniProt P27037)
# [2] = target: RAC-gamma serine/threonine-protein kinase (Homo sapiens) (UniProt Q9Y243)
# [3] = target: Mitogen-activated protein kinase kinase kinase 5 (Homo sapiens) (UniProt Q99683)
# [4] = target: Mitotic checkpoint serine/threonine-protein kinase BUB1 (Homo sapiens) (UniProt O43683)
# [5] = target: Serine/threonine-protein kinase Chk1 (Homo sapiens) (UniProt O14757)
# [6] = target: Serine/threonine-protein kinase Chk2 (Homo sapiens) (UniProt O96017)
# [7] = target: Casein kinase I isoform alpha (Homo sapiens) (UniProt P48729)
# [8] = target: Casein kinase I isoform alpha-like (Homo sapiens) (UniProt Q8N752)
# Casein kinase I isoform alpha-like (Homo sapiens), sequence (Q8N752 whole entry, canonical isoform): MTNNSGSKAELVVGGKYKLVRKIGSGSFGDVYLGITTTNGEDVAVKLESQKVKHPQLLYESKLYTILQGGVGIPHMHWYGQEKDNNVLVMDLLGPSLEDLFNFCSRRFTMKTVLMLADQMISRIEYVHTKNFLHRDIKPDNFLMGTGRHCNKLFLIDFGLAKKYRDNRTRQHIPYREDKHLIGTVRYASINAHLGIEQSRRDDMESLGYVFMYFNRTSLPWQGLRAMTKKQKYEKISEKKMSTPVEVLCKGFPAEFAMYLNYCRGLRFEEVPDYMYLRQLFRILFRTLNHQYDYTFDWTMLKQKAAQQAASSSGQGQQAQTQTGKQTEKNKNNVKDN
# [9] = target: Casein kinase I isoform gamma-2 (Homo sapiens) (UniProt P78368)
# [10] = target: Death-associated protein kinase 2 (Homo sapiens) (UniProt Q9UIK4)
# Death-associated protein kinase 2 (Homo sapiens), sequence (Q9UIK4 whole entry, looked up): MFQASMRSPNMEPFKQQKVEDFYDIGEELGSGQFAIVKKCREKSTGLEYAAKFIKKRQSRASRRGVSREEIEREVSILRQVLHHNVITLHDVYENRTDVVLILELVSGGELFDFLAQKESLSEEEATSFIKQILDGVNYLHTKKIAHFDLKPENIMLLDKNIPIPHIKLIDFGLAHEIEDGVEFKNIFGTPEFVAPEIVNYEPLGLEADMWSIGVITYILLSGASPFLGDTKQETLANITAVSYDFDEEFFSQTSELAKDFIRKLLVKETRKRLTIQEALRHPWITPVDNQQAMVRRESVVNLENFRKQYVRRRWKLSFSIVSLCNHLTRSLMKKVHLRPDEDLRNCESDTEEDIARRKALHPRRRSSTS
# [11] = tested on: Epidermal growth factor receptor (Homo sapiens), P00533 [L858R,T790M]
# [12] = target: Serine/threonine-protein kinase/endoribonuclease IRE1 (Homo sapiens) (UniProt O75460)
# [13] = target: Fibroblast growth factor receptor 1 (Homo sapiens) (UniProt P11362)
# [14] = target: Vascular endothelial growth factor receptor 1 (Homo sapiens) (UniProt P17948)
# [15] = target: Tyrosine-protein kinase FRK (Homo sapiens) (UniProt P42685)
# [16] = target: G protein-coupled receptor kinase 3 (Homo sapiens) (UniProt P35626)
# [17] = target: Homeodomain-interacting protein kinase 3 (Homo sapiens) (UniProt Q9H422)
# [18] = target: Interleukin-1 receptor-associated kinase 1 (Homo sapiens) (UniProt P51617)
# [19] = target: Tyrosine-protein kinase JAK1 (Homo sapiens) (UniProt P23458)
# Tyrosine-protein kinase JAK1 (Homo sapiens), sequence (P23458 whole entry): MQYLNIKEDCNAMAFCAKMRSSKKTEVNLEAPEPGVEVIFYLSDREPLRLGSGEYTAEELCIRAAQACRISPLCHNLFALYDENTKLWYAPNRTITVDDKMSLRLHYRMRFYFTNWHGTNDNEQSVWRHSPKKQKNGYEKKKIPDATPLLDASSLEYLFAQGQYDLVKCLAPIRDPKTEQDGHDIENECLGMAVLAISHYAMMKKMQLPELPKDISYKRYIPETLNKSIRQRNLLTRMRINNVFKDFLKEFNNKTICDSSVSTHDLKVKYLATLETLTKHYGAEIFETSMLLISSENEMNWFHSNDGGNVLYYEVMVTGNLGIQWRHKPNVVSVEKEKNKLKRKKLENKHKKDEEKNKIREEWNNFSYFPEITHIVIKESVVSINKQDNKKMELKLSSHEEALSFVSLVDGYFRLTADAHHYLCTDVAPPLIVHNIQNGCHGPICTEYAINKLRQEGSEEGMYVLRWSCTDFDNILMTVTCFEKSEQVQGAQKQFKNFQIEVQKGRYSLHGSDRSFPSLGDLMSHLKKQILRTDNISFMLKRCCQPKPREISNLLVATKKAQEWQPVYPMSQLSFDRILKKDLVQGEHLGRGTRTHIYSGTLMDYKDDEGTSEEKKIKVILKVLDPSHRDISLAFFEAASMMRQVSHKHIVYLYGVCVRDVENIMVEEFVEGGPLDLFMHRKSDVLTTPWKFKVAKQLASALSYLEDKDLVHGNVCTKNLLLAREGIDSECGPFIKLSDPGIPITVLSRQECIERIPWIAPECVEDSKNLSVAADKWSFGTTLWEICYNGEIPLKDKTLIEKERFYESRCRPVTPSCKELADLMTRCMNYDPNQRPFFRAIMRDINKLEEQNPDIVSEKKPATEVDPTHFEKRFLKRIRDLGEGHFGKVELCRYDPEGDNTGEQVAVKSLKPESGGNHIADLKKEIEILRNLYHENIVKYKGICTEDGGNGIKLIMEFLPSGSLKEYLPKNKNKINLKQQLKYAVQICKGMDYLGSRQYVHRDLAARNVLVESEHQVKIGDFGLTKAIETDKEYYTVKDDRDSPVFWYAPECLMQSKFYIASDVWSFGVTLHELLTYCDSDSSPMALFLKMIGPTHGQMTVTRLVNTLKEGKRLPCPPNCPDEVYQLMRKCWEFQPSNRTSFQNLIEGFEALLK
# [20] = target: Mitogen-activated protein kinase 8 (Homo sapiens) (UniProt P45983)
# [21] = target: Mast/stem cell growth factor receptor Kit (Homo sapiens) (UniProt P10721)
# [22] = target: Serine/threonine-protein kinase 10 (Homo sapiens) (UniProt O94804)
# [23] = target: Leukocyte tyrosine kinase receptor (Homo sapiens) (UniProt P29376)
# [24] = target: Mitogen-activated protein kinase kinase kinase 3 (Homo sapiens) (UniProt Q99759)
# Mitogen-activated protein kinase kinase kinase 3 (Homo sapiens), sequence (Q99759 whole entry): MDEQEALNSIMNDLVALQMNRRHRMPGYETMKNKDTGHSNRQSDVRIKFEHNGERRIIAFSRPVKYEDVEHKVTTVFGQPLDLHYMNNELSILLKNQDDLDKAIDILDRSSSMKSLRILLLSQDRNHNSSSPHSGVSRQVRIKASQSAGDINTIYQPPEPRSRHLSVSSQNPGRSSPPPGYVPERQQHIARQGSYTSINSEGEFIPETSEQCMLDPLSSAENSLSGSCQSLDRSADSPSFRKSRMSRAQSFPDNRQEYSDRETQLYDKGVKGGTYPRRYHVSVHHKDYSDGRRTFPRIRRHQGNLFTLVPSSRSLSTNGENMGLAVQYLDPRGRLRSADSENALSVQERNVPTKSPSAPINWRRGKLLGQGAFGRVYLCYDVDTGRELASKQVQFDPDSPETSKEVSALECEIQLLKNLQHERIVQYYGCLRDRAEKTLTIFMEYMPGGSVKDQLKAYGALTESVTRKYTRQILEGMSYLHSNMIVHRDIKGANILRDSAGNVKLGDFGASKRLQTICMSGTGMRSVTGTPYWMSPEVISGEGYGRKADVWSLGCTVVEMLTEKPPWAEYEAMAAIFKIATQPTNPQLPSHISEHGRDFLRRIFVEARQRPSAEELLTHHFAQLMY
# [25] = target: MAP kinase-activated protein kinase 5 (Homo sapiens) (UniProt Q8IW41)
# [26] = target: Microtubule-associated serine/threonine-protein kinase 1 (Homo sapiens) (UniProt Q9Y2H9)
# [27] = tested on: Hepatocyte growth factor receptor (Homo sapiens), P08581 [Y1235D]
# [28] = target: Mitogen-activated protein kinase kinase kinase 9 (Homo sapiens) (UniProt P80192)
# [29] = target: Serine/threonine-protein kinase NIM1 (Homo sapiens) (UniProt Q8IY84)
# Serine/threonine-protein kinase NIM1 (Homo sapiens), sequence (Q8IY84 whole entry): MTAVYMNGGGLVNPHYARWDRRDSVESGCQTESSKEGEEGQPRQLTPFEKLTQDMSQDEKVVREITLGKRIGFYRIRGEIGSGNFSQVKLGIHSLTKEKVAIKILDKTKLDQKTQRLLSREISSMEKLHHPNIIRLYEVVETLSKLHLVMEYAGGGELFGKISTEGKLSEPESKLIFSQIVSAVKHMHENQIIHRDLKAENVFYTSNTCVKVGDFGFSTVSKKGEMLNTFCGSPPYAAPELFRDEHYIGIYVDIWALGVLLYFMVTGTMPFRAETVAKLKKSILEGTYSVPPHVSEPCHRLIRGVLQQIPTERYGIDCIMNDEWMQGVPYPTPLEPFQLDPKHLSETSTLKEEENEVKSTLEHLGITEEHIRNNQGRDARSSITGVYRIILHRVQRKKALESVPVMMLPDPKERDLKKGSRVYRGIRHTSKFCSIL
# [30] = target: Serine/threonine-protein kinase PAK 6 (Homo sapiens) (UniProt Q9NQU5)
# [31] = tested on: Phosphatidylinositol 4,5-bisphosphate 3-kinase catalytic subunit alpha isoform (Homo sapiens), P42336 [H1047L]
# [32] = target: Membrane-associated tyrosine- and threonine-specific cdc2-inhibitory kinase (Homo sapiens) (UniProt Q99640)
# [33] = target: Protein kinase C delta type (Homo sapiens) (UniProt Q05655)
# [34] = target: Serine/threonine-protein kinase D3 (Homo sapiens) (UniProt O94806)
# Serine/threonine-protein kinase D3 (Homo sapiens), sequence (O94806 whole entry): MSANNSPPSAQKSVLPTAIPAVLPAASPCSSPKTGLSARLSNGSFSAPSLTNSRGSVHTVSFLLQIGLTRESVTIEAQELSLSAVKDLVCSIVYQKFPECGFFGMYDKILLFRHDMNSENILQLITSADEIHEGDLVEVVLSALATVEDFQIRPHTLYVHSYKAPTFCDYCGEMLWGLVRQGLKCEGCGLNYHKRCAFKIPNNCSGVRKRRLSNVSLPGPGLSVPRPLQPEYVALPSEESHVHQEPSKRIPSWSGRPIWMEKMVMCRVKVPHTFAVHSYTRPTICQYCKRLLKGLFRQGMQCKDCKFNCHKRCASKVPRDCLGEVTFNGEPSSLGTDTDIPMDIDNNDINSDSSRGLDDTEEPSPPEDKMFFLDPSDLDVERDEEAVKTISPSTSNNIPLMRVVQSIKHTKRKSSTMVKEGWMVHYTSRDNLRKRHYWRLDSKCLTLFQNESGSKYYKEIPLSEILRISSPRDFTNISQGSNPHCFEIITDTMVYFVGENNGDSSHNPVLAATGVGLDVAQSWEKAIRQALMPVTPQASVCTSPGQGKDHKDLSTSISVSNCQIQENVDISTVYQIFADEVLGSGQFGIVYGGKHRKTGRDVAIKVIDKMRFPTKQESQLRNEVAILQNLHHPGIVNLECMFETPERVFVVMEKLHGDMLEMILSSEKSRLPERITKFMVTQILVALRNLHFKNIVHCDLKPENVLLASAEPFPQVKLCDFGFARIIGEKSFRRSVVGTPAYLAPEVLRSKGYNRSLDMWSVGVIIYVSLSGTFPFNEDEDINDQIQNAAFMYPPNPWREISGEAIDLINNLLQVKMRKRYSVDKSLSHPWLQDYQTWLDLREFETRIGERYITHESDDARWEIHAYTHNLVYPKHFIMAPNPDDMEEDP
# [35] = target: Interferon-induced, double-stranded RNA-activated protein kinase (Homo sapiens) (UniProt P19525)
# [36] = target: Mitogen-activated protein kinase kinase kinase 7 (Homo sapiens) (UniProt O43318)
# [37] = target: TRAF2 and NCK-interacting protein kinase (Homo sapiens) (UniProt Q9UKE5)
# [38] = target: Non-receptor tyrosine-protein kinase TNK1 (Homo sapiens) (UniProt Q13470)
# [39] = target: High affinity nerve growth factor receptor (Homo sapiens) (UniProt P04629)
# [40] = target: NT-3 growth factor receptor (Homo sapiens) (UniProt Q16288)
# [41] = target: Dual specificity protein kinase TTK (Homo sapiens) (UniProt P33981)
# [42] = target: Non-receptor tyrosine-protein kinase TYK2 (Homo sapiens) (UniProt P29597)
# [43] = target: Tyrosine-protein kinase receptor TYRO3 (Homo sapiens) (UniProt Q06418)
# [44] = target: Serine/threonine-protein kinase WNK1 (Homo sapiens) (UniProt Q9H4A3)
# [45] = target: Mitogen-activated protein kinase kinase kinase 19 (Homo sapiens) (UniProt Q56UN5)
# Mitotic checkpoint serine/threonine-protein kinase BUB1 (Homo sapiens), sequence (O43683 whole entry, looked up): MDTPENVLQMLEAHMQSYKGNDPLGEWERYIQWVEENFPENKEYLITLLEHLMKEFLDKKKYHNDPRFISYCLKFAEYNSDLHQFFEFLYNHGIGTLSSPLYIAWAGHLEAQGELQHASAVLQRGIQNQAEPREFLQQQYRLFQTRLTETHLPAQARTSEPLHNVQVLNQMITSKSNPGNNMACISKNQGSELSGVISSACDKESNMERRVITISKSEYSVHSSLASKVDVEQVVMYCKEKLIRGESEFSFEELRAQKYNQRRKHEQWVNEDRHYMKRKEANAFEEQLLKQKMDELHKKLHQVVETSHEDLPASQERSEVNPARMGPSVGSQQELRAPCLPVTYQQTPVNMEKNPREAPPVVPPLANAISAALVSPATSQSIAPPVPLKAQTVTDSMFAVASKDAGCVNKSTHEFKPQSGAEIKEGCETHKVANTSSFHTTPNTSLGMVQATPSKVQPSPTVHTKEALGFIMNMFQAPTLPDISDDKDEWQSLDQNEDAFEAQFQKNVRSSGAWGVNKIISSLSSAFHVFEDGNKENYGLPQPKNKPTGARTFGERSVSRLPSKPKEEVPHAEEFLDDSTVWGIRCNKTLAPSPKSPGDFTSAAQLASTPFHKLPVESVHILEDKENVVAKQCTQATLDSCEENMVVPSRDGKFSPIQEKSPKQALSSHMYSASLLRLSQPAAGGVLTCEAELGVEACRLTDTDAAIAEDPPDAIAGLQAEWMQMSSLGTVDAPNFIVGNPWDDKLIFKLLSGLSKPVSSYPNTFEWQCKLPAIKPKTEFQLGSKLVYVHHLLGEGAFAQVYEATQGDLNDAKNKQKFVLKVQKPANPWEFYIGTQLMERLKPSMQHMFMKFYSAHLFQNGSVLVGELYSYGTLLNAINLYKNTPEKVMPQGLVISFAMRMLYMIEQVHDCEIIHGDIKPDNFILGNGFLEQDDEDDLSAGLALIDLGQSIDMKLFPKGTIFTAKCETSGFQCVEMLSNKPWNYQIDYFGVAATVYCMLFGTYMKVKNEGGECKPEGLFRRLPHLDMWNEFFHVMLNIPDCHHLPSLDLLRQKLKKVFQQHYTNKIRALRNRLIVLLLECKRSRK
smiles,measurement,setting,value
c1ccc(N2CCN(Cc3nc4ccccc4[nH]3)CC2)nc1 [ABT-724],residual activity,[1],100%
same,residual activity,[2],100%
same,residual activity,[3],93%
same,residual activity,[4],100%
same,residual activity,[5],100%
same,residual activity,[6],100%
same,residual activity,[7],93%
same,residual activity,[8],100%
same,residual activity,[9],100%
same,residual activity,[10],86%
same,residual activity,[11],100%
same,residual activity,[12],100%
same,residual activity,[13],100%
same,residual activity,[14],100%
same,residual activity,[15],100%
same,residual activity,[16],67%
same,residual activity,[17],100%
same,residual activity,[18],100%
same,residual activity,[19],91%
same,residual activity,[20],100%
same,residual activity,[21],100%
same,residual activity,[22],100%
same,residual activity,[23],100%
same,residual activity,[24],100%
same,residual activity,[25],100%
same,residual activity,[26],65%
same,residual activity,[27],100%
same,residual activity,[28],100%
same,residual activity,[29],100%
same,residual activity,[30],100%
same,residual activity,[31],100%
same,residual activity,[32],100%
same,residual activity,[33],100%
same,residual activity,[34],100%
same,residual activity,[35],100%
same,residual activity,[36],52%
same,residual activity,[37],100%
same,residual activity,[38],59%
same,residual activity,[39],100%
same,residual activity,[40],87%
same,residual activity,[41],100%
same,residual activity,[42],100%
same,residual activity,[43],93%
same,residual activity,[44],100%
same,residual activity,[45],100%
CSc1cccnc1N1CCN(Cc2nc3ccccc3[nH]2)CC1 [A-769],residual activity,[1],69%
same,residual activity,[2],92%
same,residual activity,[3],98%
same,residual activity,[4],90%
same,residual activity,[5],94%
same,residual activity,[6],96%
same,residual activity,[7],72%
same,residual activity,[8],100%
same,residual activity,[9],99%
same,residual activity,[10],100%
same,residual activity,[11],91%
same,residual activity,[12],70%
same,residual activity,[13],100%
same,residual activity,[14],100%
same,residual activity,[15],92%
same,residual activity,[16],31%
same,residual activity,[17],96%
same,residual activity,[18],73%
same,residual activity,[19],100%
same,residual activity,[20],77%
same,residual activity,[21],72%
same,residual activity,[22],87%
same,residual activity,[23],89%
same,residual activity,[24],83%
same,residual activity,[25],84%
same,residual activity,[26],100%
same,residual activity,[27],89%
same,residual activity,[28],100%
same,residual activity,[29],84%
same,residual activity,[30],100%
same,residual activity,[31],87%
same,residual activity,[32],100%
same,residual activity,[33],100%
same,residual activity,[34],100%
same,residual activity,[35],100%
same,residual activity,[36],74%
same,residual activity,[37],100%
same,residual activity,[38],84%
same,residual activity,[39],85%
same,residual activity,[40],83%
same,residual activity,[41],98%
same,residual activity,[42],100%
same,residual activity,[43],100%
same,residual activity,[44],100%
same,residual activity,[45],72%
